Source: patent US20150336999A1, “PROCESS FOR THE PRODUCTION OF SOPHOROSE STARTING FROM SOPHOROLIPIDS” (IFP ENERGIES NOUVELLES, priority 2012, published 2015)
Where “and” joins values, the source holds several entries; their conditions need not be identical. Identical values can stand only once.

How the values were obtained:
T. reesei CL847 = experiment: Fed-batch cellulase production by T. reesei CL847 with sugar mixture containing inducing sugar; specific rate of protein production; assay type: cell-based, Trichoderma reesei; details: for specific protein production rate: fed-batch 166 h, 30° C.
Procedure: After growing cells of T. reesei CL847 (Durand H. et al. (1988a) Classical and molecular genetics applied to Trichoderma reesei for the selection of improved cellulolytic industrial strains. In: FEMS Symposium n° 43: Biochemistry and Genetics of Cellulose Degradation, p. 135-151. Academic Press, London) on glucose in stirred flasks up to the exhaustion of the glucose, cellulase production was carried out using a “fed-batch” process employing a solution the composition of which was as follows: 50 g/L of a mixture of sugars and 15 mL/L of 20% by weight NH3 as described in the publication “A new stoichiometric miniaturization strategy for screening of industrial microbial strains: application to cellulase hyper-producing Trichoderma reesei strains”, Microbial Cell Factories 2012, 11:70.
The mixture of sugars used contained (100−x)% by weight of glucose and x% by weight of inducing sugar:
in the first case (control), the inducing sugar was lactose at a quantity of x=8%
in the second, third and fourth cases, the inducing sugar was sophorose from the hydrolysate obtained in Example 3 which had been supplemented with pure glucose in order to have x=8%, x=0.3% and x=0.03% respectively.
The fed-batch process was carried out for 166 hours with a solution supply flow rate of 0.3 mL/h and at a temperature of 30° C.
Daily samples were taken in order to monitor the concentration of cells and the concentration of proteins. The induction capacity of the mixture of sugars used for the fed-batch process was expressed as the specific rate of protein production (mg of proteins produced per gram of producer cells per hour).

[1] = tested on: cellulolytic Trichoderma reesei system; details: known from the prior art (Mandels et al. 1962); cited from earlier work
[2] = inducing sugar x=8% by weight of sugar mixture (rest glucose)

SMILES	induction relative to the mixture containing lactose at the same concentration (T. reesei CL847; 8% sophorose versus 8% lactose)	specific protein production rate (T. reesei CL847; inducing sugar x=0.03% by weight of sugar mixture (rest glucose))	specific protein production rate (T. reesei CL847; inducing sugar x=0.3% by weight of sugar mixture (rest glucose))	specific protein production rate (T. reesei CL847; [2])	inducer of the cellulolytic Trichoderma reesei system [1]
O=C[C@H](O[C@@H]1O[C@H](CO)[C@@H](O)[C@H](O)[C@H]1O)[C@@H](O)[C@H](O)[C@H](O)CO [sophorose, 2-O-β-D-glucopyranosyl-D-glucose]	approximately twice as high	~6 mg/g/h	10.5 mg/g/h	12 mg/g/h	very good inducer
OC[C@H]1O[C@@H](O[C@H]2[C@H](O)[C@@H](O)C(O)O[C@@H]2CO)[C@H](O)[C@@H](O)[C@H]1O (stereo partly drawn) [lactose, reference compound]	–	–	–	6.4 mg/g/h and ~6 mg/g/h	–
